Patent publication US12281122B1, “PI3K inhibitors” (Cogent Biosciences, Inc., priority 2023, dated 2025)

Columns and labels:
[1] = system: SKBR3 (PI3Kα-Wild Type) cell line; experiment: HTRF phospho-AKT(S473) cell assay in SKBR3 cells; assay type: cell-based, human; details: Homo sapiens, SK-BR-3; HTRF phospho-AKT(S473), SKBR3 (PI3Kα-Wild Type) cells, 2 hours compound incubation, PDGF-BB stimulated
How it was run: (§1)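 HTRF read-out of phospho-AKT(S473) in lysates gave IC50 values after 2 h compound exposure at 37° C. Dose series was 12 points at 1:3, topping at 5 μM for T47D and 10 μM for SKBR3. Only SKBR3 received 70 ng/ml PDGF-BB during the last 15 minutes.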

[2] = system: T47D (PI3Kα-H1047R) cell line; experiment: HTRF phospho-AKT(S473) cell assay in T47D cells; assay type: cell-based, human; details: Homo sapiens; HTRF phospho-AKT(S473), T47D (PI3Kα-H1047R) cells, 2 hours compound incubation
How it was run: as §1

IC50 [1] | IC50 [2] | SMILES
≥ 5000 nM | 250 to 500 nM | Cc1cc([C@@H](C)Nc2ccc(Cl)nc2C(=O)NS(C)(=O)=O)c2nc(N3C[C@@H]4[C@H](C3)[C@H]4c3nc(C)n(C(F)F)n3)n(C)c(=O)c2c1 [Compound 642, 6-chloro-3-(((R)-1-(2-((1R,5S,6R)-6-(1-(difluoromethyl)-5-methyl-1H-1,2,4-triazol-3-yl)-3-azabicyclo[3.1.0]hexan-3-yl)-3,6-dimethyl-4-oxo-3,4-dihydroquinazolin-8-yl)ethyl)amino)-N-(methylsulfonyl) picolinamide]
≥ 5000 nM | 250 to 500 nM | Cc1cc([C@@H](C)Nc2ccc(Cl)nc2C(=O)NS(C)(=O)=O)c2nc(N3C[C@@H]4[C@H](C3)[C@H]4c3nc(C)nn3C(F)F)n(C)c(=O)c2c1 [Compound 643, 6-chloro-3-(((R)-1-(2-((1R,5S,6R)-6-(1-(difluoromethyl)-3-methyl-1H-1,2,4-triazol-5-yl)-3-azabicyclo[3.1.0]hexan-3-yl)-3,6-dimethyl-4-oxo-3,4-dihydroquinazolin-8-yl)ethyl)amino)-N-(methylsulfonyl) picolinamide]
≥ 5000 nM | 250 to 500 nM | Cc1cc([C@@H](C)Nc2ccc(Cl)nc2C(=O)NS(C)(=O)=O)c2nc(N3C[C@@H]4[C@H](C3)[C@H]4c3nnc(C)n3C(F)F)n(C)c(=O)c2c1 [Compound 644, 6-chloro-3-(((R)-1-(2-((1R,5S,6R)-6-(4-(difluoromethyl)-5-methyl-4H-1,2,4-triazol-3-yl)-3-azabicyclo[3.1.0]hexan-3-yl)-3,6-dimethyl-4-oxo-3,4-dihydroquinazolin-8-yl)ethyl)amino)-N-(methylsulfonyl) picolinamide]

The next lines start with the compound.

SMILES | IC50 [1] | IC50 [2]
COc1cnc([C@H]2[C@@H]3CN(c4nc5c([C@@H](C)Nc6ccc(Cl)nc6C(=O)NS(C)(=O)=O)cc(C)cc5c(=O)n4C)C[C@@H]32)cn1 [Compound 641, 6-chloro-3-(((R)-1-(2-((1R,5S,6R)-6-(5-methoxypyrazin-2-yl)-3-azabicyclo[3.1.0]hexan-3-yl)-3,6-dimethyl-4-oxo-3,4-dihydroquinazolin-8-yl)ethyl)amino)-N-(methylsulfonyl) picolinamide] | ≥ 5000 nM | 250 to 500 nM
Cc1cc([C@@H](C)Nc2ccc(Cl)nc2C(=O)NS(C)(=O)=O)c2nc(N3CCN(c4ccnc(C(F)F)n4)CC3)n(C)c(=O)c2c1 [Compound 649, (R)-6-chloro-3-((1-(2-(4-(2-(difluoromethyl)pyrimidin-4-yl)piperazin-1-yl)-3,6-dimethyl-4-oxo-3,4-dihydroquinazolin-8-yl)ethyl)amino)-N-(methylsulfonyl) picolinamide] | 1000 to 5000 nM | < 250 nM
Cc1cc([C@@H](C)Nc2ccc(Cl)nc2C(=O)NS(C)(=O)=O)c2nc(N3C[C@@H]4[C@H](C3)[C@H]4c3n[nH]cc3C)n(C)c(=O)c2c1 [Compound 651, 6-chloro-3-(((R)-1-(3,6-dimethyl-2-((1R,5S,6R)-6-(4-methyl-1H-pyrazol-3-yl)-3-azabicyclo[3.1.0]hexan-3-yl)-4-oxo-3,4-dihydroquinazolin-8-yl)ethyl)amino)-N-(methylsulfonyl) picolinamide] | 1000 to 5000 nM | 250 to 500 nM
Cc1cc([C@@H](C)Nc2ccc(Cl)nc2C(=O)NS(C)(=O)=O)c2nc(N3CCN(c4cnc(C)c(F)c4)CC3)n(C)c(=O)c2c1 [Compound 652, (R)-6-chloro-3-((1-(2-(4-(5-fluoro-6-methylpyridin-3-yl)piperazin-1-yl)-3,6-dimethyl-4-oxo-3,4-dihydroquinazolin-8-yl)ethyl)amino)-N-(methylsulfonyl) picolinamide] | 1000 to 5000 nM | 250 to 500 nM
Cc1cc([C@@H](C)Nc2ccc(Cl)nc2C(=O)NS(C)(=O)=O)c2nc(N3C[C@@H]4[C@H](C3)[C@H]4c3ncc(C)o3)n(C)c(=O)c2c1 [Compound 653, 6-chloro-3-(((R)-1-(3,6-dimethyl-2-((1R,5S,6R)-6-(5-methyloxazol-2-yl)-3-azabicyclo[3.1.0]hexan-3-yl)-4-oxo-3,4-dihydroquinazolin-8-yl)ethyl)amino)-N-(methylsulfonyl) picolinamide] | 1000 to 5000 nM | 250 to 500 nM
